Experimental data as given in patent EP3290412A1, “HIV-1 NUCLEOCAPSID INHIBITORS” (Università degli Studi di Siena, priority 2016, dated 2018).

What was measured:
Type in all cases: cell-based
[1] = test system: HIV-1 reference strain NL4-3; assay: MonoCycle assay (TZM-bl cells)
Experimental: MonoCycle assay is a cell based assay allowing the evaluation of antiviral activity of HIV-1 inhibitors targeting the early steps of HIV-1 life cycle such as entry, uncoating of viral particles, reverse transcription and integration. The assay consists in the infection of TZM-bl cells (20,000/well) with the HIV-1 reference strain NL4-3 in presence of serial five-fold dilutions of the investigational inhibitors. After 48 hours, cells were lysed adding 40 µl of Glo Lysis Buffer (Promega) to each well for 5 minutes, then 40 µl of Brighy-Glo Luciferase Reagent (Promega) were added to each well for relative luminescence units (RLU) counting using Glo-Max Multi Detection System (Promega). RLU values from each well were elaborated using the GraphPad v5.0 software to calculate the IC50 of each compound.

[2] = test system: HIV-1 reference strain NL4-3; assay: BiCycle assay (MT-2 then TZM-bl cells); conditions: for EC50: read-out: Mean EC50 (nM)
In short: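 MT-2 cells were infected with NL4-3 in the presence of five-fold compound dilutions. After 72 h, the supernatant was passed to TZM-bl cells. Two days later, luciferase luminescence was read and IC50 calculated, giving a readout that spans the whole replication cycle.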

[3] = test system: Peripheral blood mononuclear cells (PBMC); conditions: human, 7 days
Experimental: Peripheral blood mononuclear cells (PBMC) obtained from healthy donors by separation over Ficoll-Hypaque (GEHealthear-Cat.# GEH17-1440-02) were suspended at 2x10^6 cells/mL in RPMI 1640 (Biowest-Cat.#L0501-500) supplemented with 10% of heat-inactivated sterile fetal bovine serum (Gibco-Cat.#10270-106), 2 mmol/l L-glutamine (Biowest-Cat.#X0550-100), 50 U/mL Penicillin-50 µg/mL Streptomycin (Biowest-Cat.#L0022-100), referred to as complete medium (CM). PBMC were supplemented with 5 µg/mL of phytohaemagglutinin (Sigma Aldr-Cat.#L1668) and cultured in 75 cm^2 flasks (Sarsted-Cat.#833.911.002) for 2 days at 37 °C in a humidified atmosphere with 5% CO2.
PBMC were then washed in CM, counted by trypan blue exclusion (Gibco-Cat. #15250-061), centrifuged and suspended in fresh CM supplemented with 20 IU/mL recombinant human IL-2 (Miltenyi Biotec-Cat.#130-097-748) and seeded in a 96-well-tissue culture plate (Sarsted-Ca#831.837) at the density of 5x10^5 cells/mL (or 1x10^5 cells in 200 µL final CM volume per well). Cells were left untreated (negative control) or treated with different concentrations of the compounds.
After 7 days of incubation cytotoxicity was determined using Promega's CellTiter 96(R) AQueous One Solution Cell Proliferation Assay (MTS assay) (Promega-Cat.#G3581) according to the manufacturer's instuctions. This is a colorimetric method for determining the number of viable cells in proliferation or cytotoxicity assays. The MTS tetrazolium compound is bioreduced by cells into a colored formazan product that is soluble in tissue culture medium. This conversion is presumably accomplished by NADPH or NADH produced by dehydrogenase enzymes in metabolically active cells.
Briefly, MTS solution was thawed at room temperature, or in a water bath at 37 °C and 40 µL of MTS solution was pipeted into each well of the 96-well assay plate containing the samples in 200 µL of culture medium and incubated at 37 °C, 5% CO2 for 4 hours. The optical density was read at 490 nm using a 96-well plate reader (Tecan Infinite F50) and TD50 (toxic dose 50%, dose killing 50% of the cells compared to untreated control) value was calculated by interpolation of the curve obtained by plotting dose against percent mortality and by using "Magellan data analysis software". CM alone plus MTS solution was used as a blank, and cell culture well without compound was used as a cellular control.

[4] = Human immunodeficiency virus 1, NL43, TZM-bl, 48 h, read-out: Mono Cycle IC50 nM
[5] = Human immunodeficiency virus 1, NL43, TZM-bl, read-out: BiCycle IC50 nM
[6] = Human immunodeficiency virus 1, NL43, TZM-bl cells, NL4-3, 48 hours, read-out: Mono Cycle IC50
[7] = Human immunodeficiency virus 1, NL43, MT-2 cells 72 hours then TZM-bl cells two days, NL4-3, read-out: BiCycle IC50
[8] = Human immunodeficiency virus 1, NL43, TZM-bl

SMILES	IC50 [1, 4] [nM]	IC50 [2, 5] [nM]	Proliferation assay PBMC TD50 [3] [µM]	IC50 [1, 6] [nM]	IC50 [2, 7] [nM]	EC50 [2, 8] [nM]	TD50 [3] [µM]
O=C(NCCCC1CCCCC1)c1nc(-c2ccccn2)nc(O)c1O [Compound 8, N-(3-cyclohexylpropyl)-5,6-dihydroxy-2-(pyridin-2-yl)pyrimidine-4-carboxamide]	4540	518	2				
Cc1cccnc1-c1nc(O)c(O)c(C(=O)OCC2CCCCC2)n1 [Compound 10, cyclohexylmethyl 5,6-dihydroxy-2-(3-methylpyridin-2-yl)pyrimidine-4-carboxylate]	> 50000	1400	8.1				
Cc1cccnc1-c1nc(O)c(O)c(C(=O)NCC2CCCCC2)n1 [Compound 11, N-(cyclohexylmethyl)-5,6-dihydroxy-2-(3-methylpyridin-2-yl)pyrimidine-4-carboxamide]	50000	716	8.7				
O=C(OCCC1CCCCC1)c1nc(-c2ccccn2)nc(O)c1O [Compound 12, 2-cyclohexylethyl 5,6-dihydroxy-2-(pyridin-2-yl)pyrimidine-4-carboxylate]	> 50000	2820	4				
O=C(OCCCC1CCCCC1)c1nc(-c2ccccn2)nc(O)c1O [Compound 14, 3-cyclohexylpropyl 5,6-dihydroxy-2-(pyridin-2-yl)pyrimidine-4-carboxylate]	> 50000	6830	5.6				
O=C(OCC1CCCCC1)c1nc(-c2ncccc2Cl)nc(O)c1O [Compound 15, cyclohexylmethyl 2-(3-chloropyridin-2-yl)-5,6-dihydroxypyrimidine-4-carboxylate]			25	> 50000	9660		
O=C(NCC1CCCCC1)c1nc(-c2ncccc2Cl)nc(O)c1O [Compound 16, 2-(3-chloropyridin-2-yl)-N-(cyclohexylmethyl)-5,6-dihydroxypyrimidine-4-carboxamide]			5.7	51100	2050		
CC(OC(=O)c1nc(-c2ccccn2)nc(O)c1O)C1CCCCC1 (stereo not drawn) [Compound 17, 1-cyclohexylethyl 5,6-dihydroxy-2-(pyridin-2-yl)pyrimidine-4-carboxylate]	> 50000	2030	5.5				
Cc1cccc(-c2nc(O)c(O)c(C(=O)N[C@H](C)C3CCCCC3)n2)n1 [Compound 18, (R)-N-(1-cyclohexylethyl)-5,6-dihydroxy-2-(6-methylpyridin-2-yl)pyrimidine-4-carboxamide]	37300	437	2.4				
Cc1ccnc(-c2nc(O)c(O)c(C(=O)N[C@H](C)C3CCCCC3)n2)c1 [Compound 19, (R)-N-(1-cyclohexylethyl)-5,6-dihydroxy-2-(4-methylpyridin-2-yl)pyrimidine-4-carboxamide]	15300	218	3.075				
C[C@@H](NC(=O)c1nc(-c2ccc(N)cn2)nc(O)c1O)C1CCCCC1 [Compound 20, (R)-2-(5-aminopyridin-2-yl)-N-(1-cyclohexylethyl)-5,6-dihydroxypyrimidine-4-carboxamide]	2110	94.5	1.65				
C[C@@H](NC(=O)c1nc(-c2ccc(C(=O)OCc3ccccc3)cn2)nc(O)c1O)C1CCCCC1 [Compound 21, benzyl (R)-6-(4-((1-cyclohexylethyl)carbamoyl)-5,6-dihydroxypyrimidin-2-yl)nicotinate]	> 50000	118	<0.4				
C[C@@H](NC(=O)c1nc(-c2ccc3ccccc3n2)nc(O)c1O)C1CCCCC1 [Compound 22, (R)-N-(1-cyclohexylethyl)-5,6-dihydroxy-2-(quinolin-2-yl)pyrimidine-4-carboxamide]	100000	450	8.05				
Cc1cccnc1-c1nc(O)c(O)c(C(=O)N[C@H](C)C2CCCCC2)n1 [Compound 23, (R)-N-(1-cyclohexylethyl)-5,6-dihydroxy-2-(3-methylpyridin-2-yl)pyrimidine-4-carboxamide]	88500	203	8.9			200	8.9
O=C(NC1(C2CCCCC2)CC1)c1nc(-c2ccccn2)nc(O)c1O [Compound 24, N-(1-cyclohexylcyclopropyl)-5,6-dihydroxy-2-(pyridin-2-yl)pyrimidine-4-carboxamide]	3610	110	2.6				
C[C@@H](NC(=O)c1nc(-c2cc3ccccc3cn2)nc(O)c1O)C1CCCCC1 [Compound 25, (R)-N-(1-cyclohexylethyl)-5,6-dihydroxy-2-(isoquinolin-3-yl)pyrimidine-4-carboxamide]	64000	32	1.75				
C[C@@H](NC(=O)c1nc(-c2cc(Cl)ccn2)nc(O)c1O)C1CCCCC1 [Compound 26, (R)-2-(4-chloropyridin-2-yl)-N-(1-cyclohexylethyl)-5,6-dihydroxypyrimidine-4-carboxamide]	17600	121	2.49				
C[C@@H](NC(=O)c1nc(-c2cc(C(F)(F)F)ccn2)nc(O)c1O)C1CCCCC1 [Compound 27, (R)-N-(1-cyclohexylethyl)-5,6-dihydroxy-2-(4-(trifluoromethyl)pyridin-2-yl)pyrimidine-4-carboxamide]	> 50000	433	1.075				
COc1ccnc(-c2nc(O)c(O)c(C(=O)N[C@H](C)C3CCCCC3)n2)c1 [Compound 28, (R)-N-(1-cyclohexylethyl)-5,6-dihydroxy-2-(4-methoxypyridin-2-yl)pyrimidine-4-carboxamide]	34300	40.5	2.7			41	2.7
C[C@@H](NC(=O)c1nc(-c2ncccc2C(F)(F)F)nc(O)c1O)C1CCCCC1 [Compound 30, (R)-N-(1-cyclohexylethyl)-5,6-dihydroxy-2-(3-(trifluoromethyl)pyridin-2-yl)pyrimidine-4-carboxamide]			5.4	> 50000	1730		
C[C@@H](NC(=O)c1nc(-c2nccc3ccccc23)nc(O)c1O)C1CCCCC1 [Compound 31, (R)-N-(1-cyclohexylethyl)-5,6-dihydroxy-2-(isoquinolin-1-yl)pyrimidine-4-carboxamide]	> 50000	100	5			100	5
COc1ccc(-c2nc(O)c(O)c(C(=O)N[C@H](C)C3CCCCC3)n2)nc1 [Compound 32, (R)-N-(1-cyclohexylethyl)-5,6-dihydroxy-2-(5-methoxypyridin-2-yl)pyrimidine-4-carboxamide]	8260	341	3				
C[C@@H](NC(=O)c1nc(-c2ncccc2Cl)nc(O)c1O)C1CCCCC1 [Compound 33, (R)-2-(3-chloropyridin-2-yl)-N-(1-cyclohexylethyl)-5,6-dihydroxypyrimidine-4-carboxamide]	> 50000	1220	3.4				
